The values that follow come from patent publication US12653860B2, “Compositions and methods for editing beta-globin for treatment of hemaglobinopathies” (Vertex Pharmaceuticals Incorporated, priority 2019, dated 2026).

Common to all, as to format: cell-based
For experiment [1], the system named is GSD1a locus in HEK293 T cells. Put plainly: HDR editing of GSD1a locus with ssODN homology donors. The following applies: FIG. 3; for HDR efficiency: 1.25 μM SCR7 or 10 μM RS-1. On the procedure: 2×10^5 cells were edited with 1 μM Cas9 and 1.5 μM gRNA. The cells were transfected with two different ssODNs homology donors: 93-50 (SEQ ID NO: 39) or 25-100 (SEQ ID NO: 40). These two ssODN donors contain homology arms spanning both sides of the double-stranded break induced by the Cas9-guide and facilitate correction of a point mutation in the G6PC gene sequence by HDR. Cells were edited with 100 μM ssODN. The cells were treated with 2.5 μM Nu7441, 1.25 μM SCR7, or 10 μM RS-1 and the effect on HDR efficiency was evaluated.

For experiment [2], the system named is GFP gene encoded in the AAVS1 locus of HEK293 T cells. In words: Indel formation by TIDE analysis, GFP to BFP edit. The conditions noted are these: regardless of ssODN or gRNA; vs DMSO control; FIGS. 2C-2D. On the procedure:
(§1) The effect of DNA PK inhibition by Nu7441 correction of a DSB by the NHEJ pathway (e.g., introduce an indel at the DSB site) or HDR pathway (e.g., introduce a gene mutation encoded by a homology donor at the DSB site) was assessed using the reporter system described in Example 1. In this case gene-editing was evaluated in HEK293 T cells expressing GFP in the AAVS1 locus. To introduce a gene edit that converts GFP to BFP, cells were electroporated with ribonucleoprotein (RNP) comprised of Cas9 and gRNA1 (GFP target sequence identified by SEQ ID NO: 9; sgRNA spacer sequence identified by SEQ ID NO: 10) or gRNA2 (GFP target sequence identified by SEQ ID NO: 11; sgRNA spacer identified by SEQ ID NO: 12) that targets the GFP gene encoded in the AAVS1 locus. The cells were also transfected with ssODNs that encoded the gene correction necessary to convert GFP to BFP and homology arms complimentary to the sequence upstream and downstream of the target gene cut site. The efficiency of HDR repair was determined by measuring the level of cell BFP fluorescence. The efficiency of cutting (indel information) was monitored by TIDE analysis.
Shown in FIGS. 2C-2D is a measure of indel formation performed by TIDE analysis for the same edits that are described for FIGS. 2A-2B. […] Thus, the DNA PK inhibitor Nu7441 achieves reduced repair of a DSB by the NHEJ pathway when a homology donor is provided.

The test system of experiment [3] is GSD1a locus in HEK293 T cells. Put plainly: Gene correction by NHEJ repair at GSD1a locus with dsDNA donors. The following applies: dsDNA donors 50-0 or 150-0; 2.5 μM Nu7441, 1.25 μM SCR7 or 10 μM RS-1; vs DMSO alone; FIG. 3. On the procedure:
The effect of Nu7441 treatment on gene correction by the NHEJ pathway was also evaluated. To do so, the cells were transfected with two different dsDNA donors: 50-0 (SEQ ID NO: 37) or 150-0 (SEQ ID NO: 38). Cells were edited with 1.5 g dsDNA donor. These dsDNA donors, lacking homology arms, introduce a second 3′ splice site into exon 2 at the GSD1a locus when inserted into the cut site induced by the Cas9-guide complex by NHEJ repair. The cells were treated with 2.5 μM Nu7441, 1.25 μM SCR7, or 10 μM RS-1 and gene correction by NHEJ repair was evaluated. […] Treatment with SCR7 or RS-1 had no effect over DMSO alone.

The subject of experiment [4] is GFP gene encoded in the AAVS1 locus of HEK293 T cells. Put plainly: GFP to BFP reporter assay of HDR repair (BFP fluorescence). The following applies: four ssODNs. On the procedure: as §1
Shown in FIGS. 2A-2B is a comparison of HDR editing efficiency for cells treated with Nu7441, SCR7, or RS-1. Shown in FIG. 2A are cells were electroporated with RNP comprising Cas9 and gRNA1 (GFP target sequence shown in SEQ ID NO: 9; sgRNA spacer sequence identified by SEQ ID NO: 10). 2×10^5 cells were edited with 1 μM Cas9 and 1.5 μM gRNA1. The cells were transfected with four different ssODNs. These included ssODN 1067 (SEQ ID NO: 29) and ssODN 1069 (SEQ ID NO: 31) that are complimentary to the DNA strand containing the PAM sequence and ssODN 1068 (SEQ ID NO: 30) and ssODN 1070 (SEQ ID NO: 32) that are complimentary to the DNA strand not containing the PAM sequence. Cells were edited with 100 μM ssODN. A concentrated stock solution of each inhibitor was prepared in DMSO and diluted to a final concentration of 2.5 μM Nu7441, 1.25 μM SCR7, or 10 μM RS-1. HDR efficiency was compared relative to treatment with DMSO alone or to treatment with RNP-only.
Shown in FIG. 2B are cells were electroporated with RNP comprising Cas9 and gRNA2 (GFP target sequence shown in SEQ ID NO: 11; sgRNA spacer sequence shown in SEQ ID NO: 12). The cells were transfected with four different ssODNs. These included ssODN 1061 (SEQ ID NO: 33) and ssODN 1063 (SEQ ID NO: 35) that are complimentary to the DNA strand containing the PAM sequence and ssODN 1062 (SEQ ID NO: 34) and ssODN 1064 (SEQ ID NO: 36) that are complimentary to the DNA strand not containing the PAM sequence.

[5] abbreviates: gRNA1, 2.5 μM Nu7441, 1.25 μM SCR7 or 10 μM RS-1, vs DMSO alone, FIG. 2A.

Consider `O=c1cc(N2CCOCC2)oc2c(-c3cccc4c3sc3ccccc34)cccc12` [Nu7441], for which, in experiment [1] (2.5 μM Nu7441, ssODN 93-50 or 25-100), the “HDR efficiency, fold increase over DMSO alone” value is “approximately 1.7 fold”. For the same compound, the “indel formation at the DSB site” value in experiment [2] is “decreased indel formation”. In experiment [3], the “gene correction by NHEJ repair” value is recorded as “substantial decrease in gene correction”. Also, the HDR efficiency result in experiment [4] (setting [5]) is given as “improved HDR efficiency”; in experiment [4] (gRNA2, 2.5 μM Nu7441), “improved HDR efficiency”.

On to `O=C(Nc1ccc(Br)cc1)c1ccc(Br)c(S(=O)(=O)NCc2ccccc2)c1` [RS-1], for which the results for the HDR efficiency result in experiment [1] and in experiment [4] (setting [5]) were “no effect” and “no improvement in HDR efficiency”, respectively. Also, the “indel formation at the DSB site” value in experiment [2] is reported as “reduction compared to a DMSO control”. In experiment [3], the “gene correction by NHEJ repair” value is listed as “no effect”.

Regarding `O=c1[nH]c(=S)[nH]c(N=Cc2ccccc2)c1N=Cc1ccccc1` [SCR7], the HDR efficiency result is “no effect” in experiment [1] and “no improvement in HDR efficiency” in experiment [4] (setting [5]). Further, in experiment [2], the “indel formation at the DSB site” value is recorded as “reduction compared to a DMSO control”. For the same compound, the “gene correction by NHEJ repair” value in experiment [3] is “no effect”.
